Calls of active or inactive are those of the source. Bounds are passed on as bounds.

This note sets out measurements from ChEMBL document CHEMBL1201862, “PubChem BioAssay data set” (2004).

Assay [1] has as its target T1, Sentrin-specific protease 6 (Homo sapiens, UniProt Q9GZR1).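 Further: Luminescence-based dose-response confirmatory assay of SENP6 inhibition, following up an ultra-high-throughput screen.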
T1 sequence (Q9GZR1 whole entry): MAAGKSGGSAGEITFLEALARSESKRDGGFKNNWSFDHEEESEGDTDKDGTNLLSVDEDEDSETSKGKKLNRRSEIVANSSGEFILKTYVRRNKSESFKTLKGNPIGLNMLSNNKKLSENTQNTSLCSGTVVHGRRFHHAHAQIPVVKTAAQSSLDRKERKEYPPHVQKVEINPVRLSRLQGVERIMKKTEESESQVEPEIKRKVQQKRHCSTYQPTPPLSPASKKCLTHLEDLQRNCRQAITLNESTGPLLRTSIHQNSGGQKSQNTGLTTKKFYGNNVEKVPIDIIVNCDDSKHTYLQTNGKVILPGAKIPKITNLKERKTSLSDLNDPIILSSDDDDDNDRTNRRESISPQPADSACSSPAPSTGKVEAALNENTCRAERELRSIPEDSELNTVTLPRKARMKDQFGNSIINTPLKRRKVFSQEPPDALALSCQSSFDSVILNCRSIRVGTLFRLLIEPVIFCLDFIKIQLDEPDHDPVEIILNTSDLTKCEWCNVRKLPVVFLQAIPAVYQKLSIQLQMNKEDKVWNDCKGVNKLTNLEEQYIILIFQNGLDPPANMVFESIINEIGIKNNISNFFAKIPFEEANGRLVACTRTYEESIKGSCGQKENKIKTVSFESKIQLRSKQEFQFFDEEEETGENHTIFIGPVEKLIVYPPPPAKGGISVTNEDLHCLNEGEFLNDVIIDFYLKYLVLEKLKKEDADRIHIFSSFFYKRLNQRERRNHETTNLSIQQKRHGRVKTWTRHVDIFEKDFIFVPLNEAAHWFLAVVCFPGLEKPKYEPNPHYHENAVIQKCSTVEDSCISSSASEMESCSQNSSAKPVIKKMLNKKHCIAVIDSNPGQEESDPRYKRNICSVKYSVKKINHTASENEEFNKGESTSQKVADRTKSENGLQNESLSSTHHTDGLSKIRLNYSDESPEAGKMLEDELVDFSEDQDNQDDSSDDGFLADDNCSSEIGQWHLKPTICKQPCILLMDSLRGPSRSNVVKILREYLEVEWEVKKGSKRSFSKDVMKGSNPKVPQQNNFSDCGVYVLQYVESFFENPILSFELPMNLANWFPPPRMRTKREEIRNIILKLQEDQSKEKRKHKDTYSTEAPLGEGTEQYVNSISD
The class given is functional.

Assay [2] concerns the target Caspase-8 (Homo sapiens, UniProt Q14790). As to the kind of experiment: inhibitors of purified CASP8 protease – biochemical, Z-IETD-R110 fluorescence, cherry-picked samples, selectivity assay for caspase-6 inhibitor project, dose response (AID 743294).
For assay [3], the system named is HEK293. As to the kind of experiment: membrane integrity loss in HEK cells – cell-based, fluorescence, cytotoxicity control for IDE activator project, dose response (AID 588440).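 Further: cytotoxicity by LDH release measuring loss of membrane integrity.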 The class given is functional. The following applies: Homo sapiens.
Assay [4] concerns the target Mitogen-activated protein kinase 13 (Homo sapiens, UniProt O15264). The class given is functional.
Assay [5] has as its target Misshapen-like kinase 1 (Homo sapiens, UniProt Q8N4C8). The format is functional.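 Further: kinome panel screen with MINK as the panel member.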
Assay [6] deals with Protein kinase C iota type (Homo sapiens, UniProt P41743). The class given is functional.
Sequence of Protein kinase C iota type (P41743 whole entry): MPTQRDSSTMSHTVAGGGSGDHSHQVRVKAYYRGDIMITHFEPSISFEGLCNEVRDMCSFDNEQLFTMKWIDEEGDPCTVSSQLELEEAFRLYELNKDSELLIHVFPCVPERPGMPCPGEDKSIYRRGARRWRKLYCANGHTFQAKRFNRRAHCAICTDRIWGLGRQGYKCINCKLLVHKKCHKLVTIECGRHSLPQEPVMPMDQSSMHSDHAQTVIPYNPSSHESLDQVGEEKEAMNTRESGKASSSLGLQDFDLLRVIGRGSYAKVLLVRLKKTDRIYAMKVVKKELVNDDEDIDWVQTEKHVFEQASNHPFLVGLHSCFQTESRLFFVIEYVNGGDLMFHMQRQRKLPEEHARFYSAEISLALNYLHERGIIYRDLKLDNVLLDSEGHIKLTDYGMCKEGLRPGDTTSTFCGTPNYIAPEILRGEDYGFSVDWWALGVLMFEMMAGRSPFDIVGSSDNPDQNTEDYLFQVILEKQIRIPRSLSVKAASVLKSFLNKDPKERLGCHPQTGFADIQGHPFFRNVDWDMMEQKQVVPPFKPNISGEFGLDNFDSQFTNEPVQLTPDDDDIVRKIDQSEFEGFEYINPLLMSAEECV
Assay [7] concerns the target Mitogen-activated protein kinase kinase kinase 20 (Homo sapiens, UniProt Q9NYL2). The format is functional.
For assay [8], the target named is MAP kinase-activated protein kinase 3 (Homo sapiens, UniProt Q16644). The format is functional.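 Further: value comes from a kinome-wide profiling panel in which MAPKAPK3 is one of the panel members.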
In assay [9] the target is Receptor tyrosine-protein kinase erbB-2 (Homo sapiens, UniProt P04626). As to the kind of experiment: Navigating the Kinome. Panel member name: ERBB2. The class given is functional.
In assay [10] the target is Serine/threonine-protein kinase MRCK alpha (Homo sapiens, UniProt Q5VT25). The class given is functional.
Sequence of Serine/threonine-protein kinase MRCK alpha (Q5VT25 whole entry): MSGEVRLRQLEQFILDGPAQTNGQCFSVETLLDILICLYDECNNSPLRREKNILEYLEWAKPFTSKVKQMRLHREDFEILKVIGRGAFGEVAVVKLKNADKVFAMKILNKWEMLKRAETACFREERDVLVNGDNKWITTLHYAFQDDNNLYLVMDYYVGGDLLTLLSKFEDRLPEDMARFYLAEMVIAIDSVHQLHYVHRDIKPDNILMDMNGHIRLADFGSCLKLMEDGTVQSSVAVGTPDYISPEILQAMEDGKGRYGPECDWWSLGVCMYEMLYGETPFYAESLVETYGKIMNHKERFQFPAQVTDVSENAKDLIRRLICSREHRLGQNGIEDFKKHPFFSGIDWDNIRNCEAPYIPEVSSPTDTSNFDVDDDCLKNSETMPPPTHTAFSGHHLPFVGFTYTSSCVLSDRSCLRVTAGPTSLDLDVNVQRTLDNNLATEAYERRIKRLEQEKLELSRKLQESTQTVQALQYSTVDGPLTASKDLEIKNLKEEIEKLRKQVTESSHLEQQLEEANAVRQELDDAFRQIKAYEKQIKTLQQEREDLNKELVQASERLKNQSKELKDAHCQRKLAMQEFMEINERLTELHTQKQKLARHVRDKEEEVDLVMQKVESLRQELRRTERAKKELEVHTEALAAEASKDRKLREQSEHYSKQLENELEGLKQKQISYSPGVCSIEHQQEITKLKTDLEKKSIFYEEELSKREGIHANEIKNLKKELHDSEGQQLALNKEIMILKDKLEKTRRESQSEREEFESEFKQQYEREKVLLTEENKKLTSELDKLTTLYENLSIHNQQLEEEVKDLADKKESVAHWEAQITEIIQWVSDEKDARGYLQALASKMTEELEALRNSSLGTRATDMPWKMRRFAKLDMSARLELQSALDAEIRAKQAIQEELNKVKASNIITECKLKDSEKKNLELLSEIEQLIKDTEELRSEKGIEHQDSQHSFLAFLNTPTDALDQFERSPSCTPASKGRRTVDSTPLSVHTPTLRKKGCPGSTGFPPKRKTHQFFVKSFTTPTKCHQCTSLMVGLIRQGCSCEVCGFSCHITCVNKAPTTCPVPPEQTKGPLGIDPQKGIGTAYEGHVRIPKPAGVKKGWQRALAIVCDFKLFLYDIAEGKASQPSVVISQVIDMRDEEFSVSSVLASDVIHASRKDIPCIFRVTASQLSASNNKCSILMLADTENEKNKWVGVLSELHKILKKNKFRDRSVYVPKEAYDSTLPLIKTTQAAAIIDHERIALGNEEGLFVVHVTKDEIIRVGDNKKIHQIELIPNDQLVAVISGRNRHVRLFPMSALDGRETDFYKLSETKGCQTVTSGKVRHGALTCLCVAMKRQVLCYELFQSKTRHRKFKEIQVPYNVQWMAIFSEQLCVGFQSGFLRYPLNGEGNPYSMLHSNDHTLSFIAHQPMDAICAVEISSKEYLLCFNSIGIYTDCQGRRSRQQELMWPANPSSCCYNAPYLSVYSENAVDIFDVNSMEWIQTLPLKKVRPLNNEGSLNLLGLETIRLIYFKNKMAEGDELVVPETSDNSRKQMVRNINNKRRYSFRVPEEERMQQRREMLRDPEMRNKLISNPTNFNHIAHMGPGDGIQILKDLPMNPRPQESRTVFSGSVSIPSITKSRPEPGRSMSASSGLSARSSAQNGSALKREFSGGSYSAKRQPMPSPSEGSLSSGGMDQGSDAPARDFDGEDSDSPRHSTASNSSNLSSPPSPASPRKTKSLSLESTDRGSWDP
In assay [11] the target is Receptor tyrosine-protein kinase erbB-4 (Homo sapiens, UniProt Q15303). The format is functional.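 Further: ERBB4 member of a kinome-wide kinase profiling panel.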
Assay [12] deals with Ephrin type-A receptor 2 (Homo sapiens, UniProt P29317). The format is functional.
Assay [13] concerns the target Ribosomal protein S6 kinase beta-1 (Homo sapiens, UniProt P23443). The class given is functional.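 Further: measured as one member of a kinome-wide profiling panel.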
The target in assay [14] is Serine/threonine-protein kinase 17A (Homo sapiens, UniProt Q9UEE5). The format is functional.
Sequence of Serine/threonine-protein kinase 17A (Q9UEE5 whole entry): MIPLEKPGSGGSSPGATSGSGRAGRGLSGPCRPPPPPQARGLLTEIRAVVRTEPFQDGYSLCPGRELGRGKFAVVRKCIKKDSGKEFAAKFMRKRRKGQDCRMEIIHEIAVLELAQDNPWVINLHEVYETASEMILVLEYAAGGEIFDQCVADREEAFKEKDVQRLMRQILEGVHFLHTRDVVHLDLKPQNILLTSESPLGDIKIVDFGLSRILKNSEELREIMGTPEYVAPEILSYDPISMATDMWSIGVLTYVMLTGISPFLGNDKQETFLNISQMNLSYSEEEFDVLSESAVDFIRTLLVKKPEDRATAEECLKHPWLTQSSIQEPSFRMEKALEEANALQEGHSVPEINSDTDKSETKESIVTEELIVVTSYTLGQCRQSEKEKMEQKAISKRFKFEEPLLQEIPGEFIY
The target in assay [15] is RAC-gamma serine/threonine-protein kinase (Homo sapiens, UniProt Q9Y243). The format is functional.
Assay [16] has as its target Fibroblast growth factor receptor 3 (Homo sapiens, UniProt P22607). The class given is functional.
In assay [17] the target is Tyrosine-protein kinase SYK (Homo sapiens, UniProt P43405). The format is functional.
In assay [18] the target is Lymphokine-activated killer T-cell-originated protein kinase (Homo sapiens, UniProt Q96KB5). The format is functional.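 Further: value comes from a kinase panel screen in which TOPK was one of the panel members.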
For assay [19], the target named is cGMP-dependent protein kinase 1 (Homo sapiens, UniProt Q13976). The format is functional.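 Further: value from a kinome panel screen with PRKG1 as the panel member.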
For assay [20], the target named is 3-phosphoinositide-dependent protein kinase 1 (Homo sapiens, UniProt O15530). The format is functional.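 Further: value comes from the Navigating the Kinome panel, PDPK1 member.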
Sequence of 3-phosphoinositide-dependent protein kinase 1 (O15530 whole entry): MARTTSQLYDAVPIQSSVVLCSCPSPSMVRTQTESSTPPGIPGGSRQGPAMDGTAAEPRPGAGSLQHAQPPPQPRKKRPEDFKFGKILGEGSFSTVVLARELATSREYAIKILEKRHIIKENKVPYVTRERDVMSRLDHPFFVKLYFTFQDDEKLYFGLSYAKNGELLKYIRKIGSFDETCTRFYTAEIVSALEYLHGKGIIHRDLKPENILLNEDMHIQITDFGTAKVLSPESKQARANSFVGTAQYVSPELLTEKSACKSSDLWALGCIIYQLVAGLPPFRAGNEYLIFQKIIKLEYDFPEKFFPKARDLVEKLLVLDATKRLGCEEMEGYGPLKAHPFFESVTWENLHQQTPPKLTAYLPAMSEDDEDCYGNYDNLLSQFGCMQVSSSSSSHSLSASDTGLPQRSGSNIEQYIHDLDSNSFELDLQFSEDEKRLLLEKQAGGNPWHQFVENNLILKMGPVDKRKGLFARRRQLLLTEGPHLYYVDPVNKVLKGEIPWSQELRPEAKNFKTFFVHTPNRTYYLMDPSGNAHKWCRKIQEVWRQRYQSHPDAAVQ
In assay [21] the target is Cyclin-dependent kinase 1 (Homo sapiens, UniProt P06493). The class given is functional.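 Further: Kinome-wide panel profiling, with the target listed as panel member CDC2.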
The target of assay [22] is Testis-specific serine/threonine-protein kinase 1 (Homo sapiens, UniProt Q9BXA7). The class given is functional.
Sequence of Testis-specific serine/threonine-protein kinase 1 (Q9BXA7 whole entry): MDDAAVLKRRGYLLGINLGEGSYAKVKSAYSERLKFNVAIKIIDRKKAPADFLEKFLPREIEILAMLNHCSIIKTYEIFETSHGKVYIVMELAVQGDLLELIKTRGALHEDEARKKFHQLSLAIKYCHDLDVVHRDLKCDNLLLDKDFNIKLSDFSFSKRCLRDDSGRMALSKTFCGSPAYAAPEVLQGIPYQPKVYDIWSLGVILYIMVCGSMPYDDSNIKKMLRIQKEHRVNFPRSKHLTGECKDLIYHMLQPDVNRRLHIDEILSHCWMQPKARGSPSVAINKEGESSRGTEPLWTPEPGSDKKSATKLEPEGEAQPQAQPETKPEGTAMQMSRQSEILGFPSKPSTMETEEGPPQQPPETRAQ
Assay [23] has as its target Serine/threonine-protein kinase BRSK1 (Homo sapiens, UniProt Q8TDC3). The class given is functional.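 Further: measured within a kinome-wide kinase panel, with the target listed as KIAA1811.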
Assay [24] has as its target Proto-oncogene tyrosine-protein kinase Src (Homo sapiens, UniProt P12931). The class given is functional.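 Further: SRC entry within a kinome-wide kinase profiling panel.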
For assay [25], the target named is Calcium/calmodulin-dependent protein kinase type II subunit delta (Homo sapiens, UniProt Q13557). The format is functional.
Assay [26] addresses Dual specificity tyrosine-phosphorylation-regulated kinase 3 (Homo sapiens, UniProt O43781). The class given is functional.
Assay [27] addresses Casein kinase I isoform gamma-1 (Homo sapiens, UniProt Q9HCP0). The class given is functional.

Sequence of Casein kinase I isoform gamma-1 (Q9HCP0 whole entry, canonical isoform): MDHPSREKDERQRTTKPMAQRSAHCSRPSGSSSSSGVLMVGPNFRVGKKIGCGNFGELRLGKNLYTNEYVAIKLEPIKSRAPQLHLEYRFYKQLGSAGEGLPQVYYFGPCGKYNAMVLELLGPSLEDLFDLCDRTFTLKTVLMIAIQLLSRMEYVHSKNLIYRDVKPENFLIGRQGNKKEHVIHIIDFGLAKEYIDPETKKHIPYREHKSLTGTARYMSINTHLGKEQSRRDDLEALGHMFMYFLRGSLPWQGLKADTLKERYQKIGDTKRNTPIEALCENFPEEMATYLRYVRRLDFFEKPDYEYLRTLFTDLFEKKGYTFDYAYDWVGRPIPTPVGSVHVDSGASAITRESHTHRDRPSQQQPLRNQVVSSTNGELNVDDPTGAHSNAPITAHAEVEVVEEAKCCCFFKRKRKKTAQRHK
Sequence of Serine/threonine-protein kinase BRSK1 (Q8TDC3 whole entry): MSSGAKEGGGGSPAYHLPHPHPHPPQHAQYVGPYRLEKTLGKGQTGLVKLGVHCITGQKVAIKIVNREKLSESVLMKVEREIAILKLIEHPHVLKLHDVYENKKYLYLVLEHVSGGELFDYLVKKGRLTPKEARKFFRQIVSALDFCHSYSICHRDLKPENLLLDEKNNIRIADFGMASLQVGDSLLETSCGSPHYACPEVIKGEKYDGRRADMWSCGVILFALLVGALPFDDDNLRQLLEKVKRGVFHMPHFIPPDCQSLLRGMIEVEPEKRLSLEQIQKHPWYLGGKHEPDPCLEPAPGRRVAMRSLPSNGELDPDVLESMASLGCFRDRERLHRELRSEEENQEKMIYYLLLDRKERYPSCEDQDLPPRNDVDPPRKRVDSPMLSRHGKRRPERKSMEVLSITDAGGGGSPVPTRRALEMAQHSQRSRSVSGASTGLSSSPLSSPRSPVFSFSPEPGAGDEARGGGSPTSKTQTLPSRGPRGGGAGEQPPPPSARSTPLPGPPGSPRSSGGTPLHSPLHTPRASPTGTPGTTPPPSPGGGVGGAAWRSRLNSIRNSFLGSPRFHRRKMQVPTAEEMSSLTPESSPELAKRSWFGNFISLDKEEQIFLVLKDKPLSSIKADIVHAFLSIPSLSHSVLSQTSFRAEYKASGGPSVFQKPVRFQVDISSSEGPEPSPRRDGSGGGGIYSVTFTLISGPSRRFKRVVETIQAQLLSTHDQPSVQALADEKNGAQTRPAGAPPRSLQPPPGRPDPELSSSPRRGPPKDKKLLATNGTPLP

One may read the IC50 as the concentration at which inhibition is half-maximal. What is called AC50 is the concentration at which the activity in the assay is half-maximal. For the compound `O=C(COC(=O)c1ccc([N+](=O)[O-])s1)Nc1ccc(F)cc1`, in assay [1], the IC50 was 3820 nM (active). Further, in assay [2], the AC50 is 18600 nM (active).
For `CCN(CC)CCCC(C)n1c2nc(=O)[nH]c(=O)c-2nc2cc(Cl)ccc21` (configuration not stated), in [3], the IC50 was > 89200 nM (inactive).
By Ki is commonly meant the dissociation constant of the complex between target and ligand, obtained from inhibition or displacement. By pKi is commonly meant the negative decadic logarithm of the Ki, by convention in mol/L. For the compound `OC1CCC(Nc2nc(Cl)cc(-c3c[nH]c4ncccc34)n2)CC1` (configuration not stated), the Ki in [4] is 126 nM (active); in assay [5], 3.16 nM (active); in assay [6] it was 2510 nM (active); in assay [7], > 7940 nM (inactive); in assay [8], > 10000 nM (inactive); in [9] it was > 1580 nM (inactive). The Ki in assay [10] was 31.6 nM (active); in assay [11] it was > 3980 nM (inactive); in assay [12], > 3160 nM (inactive); in [13] it was 100 nM (active); in assay [14], 39.8 nM (active); in assay [15], > 10000 nM (inactive). Moreover, the Ki is > 2000 nM (inactive) in assay [16]; 1000 nM (active) in assay [17]; 3160 nM (active) in [18]; 100 nM (active) in assay [19]; 501 nM (active) in assay [20]; 39.8 nM (active) in assay [21]. Further, the Ki in assay [22] was 126 nM (active); in [23], 1000 nM (active); in assay [24], > 2000 nM (inactive); in [25] it was 63.1 nM (active); in [26], 5.01 nM (active); in assay [27] it was 316 nM (active). Also, the pKi in assay [4] was 6.9; in assay [5] it was 8.5; in [6], 5.6; in [10], 7.5; in assay [13], 7; in assay [14], 7.4. Also, the pKi in [17] is 6; in [19] it was 7; in assay [20] it was 6.3; in assay [21], 7.4; in [22], 6.9; in assay [23], 6. Also, the pKi in [25] amounted to 7.2; in assay [26], 8.3; in [27] it was 6.5.
